In patent US6589325B1, “Phthalocyanine compounds, water-base ink compositions and colored products” (Nippon Kayaku Kabushiki Kaisha, priority 1999, dated 2003):

How the values were obtained:
[1] = light fastness of recorded image, carbon arc fade meter; format: physicochemical; details: for light fastness (summary in words): depending on the kind of recording material; for Light fastness Judgment / Light fastness (ΔE): carbon arc 20 hours; for Light fastness Judgment: blue scale JIS L-0841; for Light fastness (ΔE): color difference before/after
Experimental: (§1) The solution of the composition as described below was prepared and filtered through a 0.45 μm membrane filter to prepare the water-based ink compositions for ink-jetting. Ion-exchanged water was used. The water-based ink compositions were prepared with water and ammonium hydroxide to have a pH of 8-10 and a total amount of 100 parts.
(§2) By using an ink-jet printer (Trade name: PICTY80L, made by NEC KK), ink-jet recordings were done on three kinds of recording paper: a plain paper (Printer Paper A4, TLB5A4S, made by Canon KK), a special paper A (Color BJ Paper LC101, made by Canon KK), a special paper B (Color Image Jet Coat Paper STX73A4, made by Sharp KK). The test results on hue, light fastness, water fastness and color rendering property in recorded images by the water-based ink compositions (containing the compounds of Example 1 to 2) of the present invention are shown in Table 2.
(§3) The ink compositions for two comparative examples were prepared so as to coincide in optical density with the black ink of the present invention as in the above (A), but the respective ink compositions contained C.I. Direct Black 19 (represented by following Formula), an azo colorant generally applied for an ink-jet black colorant (Comparative example 1) and the compound (represented by following Formula) described in JP Laid-Open No. 140270/1990 (Comparative example 2) respectively in place of the colorant. The test results on hue, light fastness, water fastness and color rendering property in recorded images pictured by the ink compositions for the comparative examples also are shown in Table 2. [drawing 4]
A carbon arc fade meter (by Suga Testing Machine KK) was used to irradiate carbon arc on the recorded image for 20 hours. Grade was determined based on blue scale grade as prescribed in JIS L-0841. Color difference (ΔE) between before and after the irradiation also was determined by the above colorimetry system.

[2] = water fastness of recorded image, stirred in water; format: physicochemical; details: for water fastness (summary in words): plain paper and special paper; for Water fastness Judgment / Water fastness (ΔE): stirred in water 2 min; for Water fastness Judgment: JIS fading gray scale; for Water fastness (ΔE): color difference before/after
Experimental: as §1, §2, §3
The recorded material was set in a beaker filled with water, stirred for 2 min and air-dried. The change in the recorded image was determined based on the JIS fading gray scale. Color difference (ΔE) between before and after the treatment also was determined by the above colorimetry system.

With Nc1ccc2cc(S(=O)(=O)O)c(N=Nc3ccc(N=Nc4cc(C(=O)O)cc(C(=O)O)c4)c4ccccc34)c(O)c2c1 [Comparative Example 2] the “light fastness (summary in words)” value [1] was “unstable quality”, the “Light fastness Judgment” value ([1]; plain paper) was “Grade 4” and the “Light fastness (ΔE)” value ([1]; plain paper) was “(1.3)”. For the same compound, the “Light fastness Judgment” value ([1]; special paper A) was “Grade 3”, the “Light fastness (ΔE)” value ([1]; special paper A) was “(8.0)” and the “Light fastness Judgment” value ([1]; special paper B) was “Grade 4”. For the same compound, the “Light fastness (ΔE)” value ([1]; special paper B) was “(2.8)”, the “water fastness (summary in words)” value [2] was “inferior” and the “Water fastness Judgment” value ([2]; plain paper) was “Grade 3”. For the same compound, the “Water fastness (ΔE)” value ([2]; plain paper) was “(6.2)”, the “Water fastness Judgment” value ([2]; special paper A) was “Grade 5” and the “Water fastness (ΔE)” value ([2]; special paper A) was “(1.0)”. For the same compound, the “Water fastness Judgment” value ([2]; special paper B) was “Grade 2” and the “Water fastness (ΔE)” value ([2]; special paper B) was “(10.3)”.
With Nc1ccc(N=Nc2ccc(N=Nc3c(S(=O)(=O)[O-])cc4cc(S(=O)(=O)[O-])c(N=Nc5ccc(N=Nc6ccc(N)cc6N)cc5)c(O)c4c3N)cc2)c(N)c1.[Na+].[Na+] [Comparative Example 1, C.I. Direct Black 19] the “light fastness (summary in words)” value [1] was “unstable quality”, the “Light fastness Judgment” value ([1]; plain paper) was “Grade 4” and the “Light fastness (ΔE)” value ([1]; plain paper) was “(2.0)”. For the same compound, the “Light fastness Judgment” value ([1]; special paper A) was “Grade 3-4”, the “Light fastness (ΔE)” value ([1]; special paper A) was “(4.1)” and the “Light fastness Judgment” value ([1]; special paper B) was “Grade 4”. The “Light fastness (ΔE)” value ([1]; special paper B) was “(1.5)”, the “water fastness (summary in words)” value [2] was “inferior” and the “Water fastness Judgment” value ([2]; plain paper) was “Grade 2”. The “Water fastness (ΔE)” value ([2]; plain paper) was “(11.5)”, the “Water fastness Judgment” value ([2]; special paper A) was “Grade 4” and the “Water fastness (ΔE)” value ([2]; special paper A) was “(2.9)”. For the same compound, the “Water fastness Judgment” value ([2]; special paper B) was “Grade 4” and the “Water fastness (ΔE)” value ([2]; special paper B) was “(2.8)”.
